Reference: patent US20190029257A1, “APPLICATION FOR HERBICIDE-TOLERANT PROTEIN” (BEIJING DABEINONG TECHNOLOGY GROUP CO., LTD., priority 2016, published 2019)

Columns and labels:
Experiment in all cases: Halosulfuron-methyl tolerance of maize plants (damage degree)
Type in all cases: in vivo
Settings in all cases: 36 g ai/ha (4x Hal.); for Average damage % 3 DAT: 3 days after spraying; for Average damage % 7 DAT: 7 days after spraying; for Average damage % 14 DAT: 14 days after spraying; for Average damage % 21 DAT: 21 days after spraying
[1] = tested on: Zm chloroplastic ALT-3-02 maize plants
Excerpt: (§1) The herbicide tolerance effects of Zm cytoplasmic ALT-1-02 maize plants, Zm chloroplastic ALT-1-02 maize plants, Zm cytoplasmic ALT-2-02 maize plants, Zm chloroplastic ALT-2-02 maize plants, Zm cytoplasmic ALT-3-02 maize plants, Zm chloroplastic ALT-3-02 maize plants and wild-type maize plants on halosulfuron-methyl were detected (at V3-V4 stage), respectively.
(§2) Zm cytoplasmic ALT-1-02 maize plants, Zm chloroplastic ALT-1-02 maize plants, Zm cytoplasmic ALT-2-02 maize plants, Zm chloroplastic ALT-2-02 maize plants, Zm cytoplasmic ALT-3-02 maize plants, Zm chloroplastic ALT-3-02 maize plants and wild-type maize plants were respectively taken and sprayed with halosulfuron-methyl (36 g ai/ha, 4-fold field concentration) and a blank solvent (water). The damage degree caused by the herbicide was measured for each plant according to the plant growth status 3 days after spraying (3 DAT), 7 days after spraying (7 DAT), 14 days after spraying (14 DAT) and 21 days after spraying (21 DAT), respectively: considering a growth status equivalent to that of the untreated plants as having a damage degree of 0%; considering conditions of leaves being partially chlorotic and yellow but substantially not affecting the plant normal growth as having a damage degree of 50%; and considering the whole plant being purple and dying as having a damage degree of 100%. There were 2 strains in Zm cytoplasmic ALT-1-02 maize plants in total (S13 and S14), 2 strains in Zm chloroplastic ALT-1-02 maize plants in total (S15 and S16), 2 strains in Zm cytoplasmic ALT-2-02 maize plants in total (S17 and S18), 2 strains in Zm chloroplastic ALT-2-02 maize plants in total (S19 and S20), 2 strains in Zm cytoplasmic ALT-3-02 maize plants in total (S21 and S22), 2 strains in Zm chloroplastic ALT-3-02 maize plants in total (S23 and S24), and 1 strain in wild- type maize plants (CK2) in total; and 10-15 plants were selected from each strain and tested.

[2] = tested on: Zm cytoplasmic ALT-3-02 maize plants
Excerpt: as §1, §2

[3] = tested on: Zm cytoplasmic ALT-1-02 maize plants
Excerpt: as §1, §2

[4] = tested on: Zm chloroplastic ALT-2-02 maize plants
Excerpt: as §1, §2

[5] = tested on: Zm chloroplastic ALT-1-02 maize plants
Excerpt: as §1, §2

[6] = tested on: Zm cytoplasmic ALT-2-02 maize plants
Excerpt: as §1, §2

SMILES: COC(=O)c1c(Cl)nn(C)c1S(=O)(=O)NC(=O)Nc1nc(OC)cc(OC)n1 [halosulfuron-methyl, 3-chlorine-5-(4,6-dimethoxypyrimidine-2-aminocarbonylaminosulphonyl)-1-methylpyrazole-4-carboxylic acid methyl ester]
- Average damage % 3 DAT ([1]; strain S23): 0%
- Average damage % 7 DAT ([1]; strain S23): 0%
- Average damage % 14 DAT ([1]; strain S23): 0%
- Average damage % 21 DAT ([1]; strain S23): 0%
- Average damage % 3 DAT ([1]; strain S24): 0%
- Average damage % 7 DAT ([1]; strain S24): 0%
- Average damage % 14 DAT ([1]; strain S24): 0%
- Average damage % 21 DAT ([1]; strain S24): 0%
- Average damage % 3 DAT ([2]; strain S21): 0%
- Average damage % 7 DAT ([2]; strain S21): 4%
- Average damage % 14 DAT ([2]; strain S21): 0%
- Average damage % 21 DAT ([2]; strain S21): 0%
- Average damage % 3 DAT ([2]; strain S22): 0%
- Average damage % 7 DAT ([2]; strain S22): 5%
- Average damage % 14 DAT ([2]; strain S22): 0%
- Average damage % 21 DAT ([2]; strain S22): 0%
- Average damage % 3 DAT ([3]; strain S13): 0%
- Average damage % 7 DAT ([3]; strain S13): 2%
- Average damage % 14 DAT ([3]; strain S13): 0%
- Average damage % 21 DAT ([3]; strain S13): 0%
- Average damage % 3 DAT ([3]; strain S14): 0%
- Average damage % 7 DAT ([3]; strain S14): 3%
- Average damage % 14 DAT ([3]; strain S14): 0%
- Average damage % 21 DAT ([3]; strain S14): 0%
- Average damage % 3 DAT ([4]; strain S19): 0%
- Average damage % 7 DAT ([4]; strain S19): 0%
- Average damage % 14 DAT ([4]; strain S19): 0%
- Average damage % 21 DAT ([4]; strain S19): 0%
- Average damage % 3 DAT ([4]; strain S20): 0%
- Average damage % 7 DAT ([4]; strain S20): 0%
- Average damage % 14 DAT ([4]; strain S20): 0%
- Average damage % 21 DAT ([4]; strain S20): 0%
- Average damage % 3 DAT ([5]; strain S15): 0%
- Average damage % 7 DAT ([5]; strain S15): 0%
- Average damage % 14 DAT ([5]; strain S15): 0%
- Average damage % 21 DAT ([5]; strain S15): 0%
- Average damage % 3 DAT ([5]; strain S16): 0%
- Average damage % 7 DAT ([5]; strain S16): 0%
- Average damage % 14 DAT ([5]; strain S16): 0%
- Average damage % 21 DAT ([5]; strain S16): 0%
- Average damage % 3 DAT ([6]; strain S17): 0%
- Average damage % 7 DAT ([6]; strain S17): 3%
- Average damage % 14 DAT ([6]; strain S17): 0%
- Average damage % 21 DAT ([6]; strain S17): 0%
- Average damage % 3 DAT ([6]; strain S18): 0%
- Average damage % 7 DAT ([6]; strain S18): 2%
- Average damage % 14 DAT ([6]; strain S18): 0%
- Average damage % 21 DAT ([6]; strain S18): 0%
